Assay results published in ChEMBL document CHEMBL1201862, “PubChem BioAssay data set” (2004).
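1) Cells in 96-well plates. 2) Compound, 48 h, 5 concentrations. 3) Linear interpolation between surrounding doses. 4) Unreached endpoint = highest concentration. GI50 is the concentration that inhibits growth by half.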 Active and inactive are the calls of the source. Rule as the data show it: active = GI50 up to about 1.1 µM and inactive = higher.

Key:
Assay in all cases: NCI-60 cell line screen, 48 h
SN12C = system: SN12C
CAKI-1 = system: CAKI-1
BT-549 = system: BT-549
Hs-578T = system: Hs-578T
HT-29 = system: HT-29
HL-60 = system: HL-60
SF-539 = system: SF-539
SK-OV-3 = system: SK-OV-3
HOP-62 = system: HOP-62
HCT-116 = system: HCT-116
SW-620 = system: SW-620
OVCAR-8 = system: OVCAR-8
ACHN = system: ACHN
RPMI-8226 = system: RPMI-8226
SK-MEL-5 = system: SK-MEL-5
LOX IMVI = system: LOX IMVI
MDA-MB-231 = system: MDA-MB-231
UACC-257 = system: UACC-257
NCI-H23 = system: NCI-H23
LXFL 529 = system: LXFL 529

SMILES | GI50 (SN12C) | GI50 (CAKI-1) | GI50 (BT-549) | GI50 (Hs-578T) | GI50 (HT-29) | GI50 (HL-60) | GI50 (SF-539) | GI50 (SK-OV-3) | GI50 (HOP-62) | GI50 (HCT-116) | GI50 (SW-620) | GI50 (OVCAR-8) | GI50 (ACHN) | GI50 (RPMI-8226) | GI50 (SK-MEL-5) | GI50 (LOX IMVI) | GI50 (MDA-MB-231) | GI50 (UACC-257) | GI50 (NCI-H23) | GI50 (LXFL 529)
CC(=O)Oc1cc2c(cc1OCC(F)(F)F)[C@H]1CC[C@]3(C)[C@@H](OC(C)=O)CC[C@H]3[C@@H]1CC2=O | 21 µM (inactive) | 17.4 µM (inactive) | 18.4 µM (inactive) | 13.7 µM (inactive) | 23.9 µM (inactive) | 13.9 µM (inactive) | 19.3 µM (inactive) | 22 µM (inactive) | 25.1 µM (inactive) | 19.3 µM (inactive) | 21.7 µM (inactive) | 20.9 µM (inactive) | 18.9 µM (inactive) | 22.3 µM (inactive) | 17 µM (inactive) | 15.4 µM (inactive) | 11.1 µM (inactive) | 18.9 µM (inactive) | 21.2 µM (inactive) | 
Cc1c(-c2nc(N)nc(C3CC3)c2C)nc(N)nc1C1CC1 | > 100 µM (inactive) | > 100 µM (inactive) | > 100 µM (inactive) | > 100 µM (inactive) | > 100 µM (inactive) | > 100 µM (inactive) | > 100 µM (inactive) | > 100 µM (inactive) | > 100 µM (inactive) | > 100 µM (inactive) | > 100 µM (inactive) | > 100 µM (inactive) | > 100 µM (inactive) | > 100 µM (inactive) | > 100 µM (inactive) | > 100 µM (inactive) | > 100 µM (inactive) | > 100 µM (inactive) | > 100 µM (inactive) | 
CCCCCCCCCCCCC1N=C(N)N2CCCC2=C1C(=O)OC (configuration not stated) | 2.75 µM (inactive) | 3.24 µM (inactive) | 10.9 µM (inactive) | 2.25 µM (inactive) | 1.67 µM (inactive) | 1.85 µM (inactive) | 5.41 µM (inactive) | 8.49 µM (inactive) | 4.24 µM (inactive) | 1.73 µM (inactive) | 1.7 µM (inactive) | 2.49 µM (inactive) | 5.38 µM (inactive) | 1.82 µM (inactive) | 2.42 µM (inactive) | 1.51 µM (inactive) | 1.9 µM (inactive) | 1.86 µM (inactive) | 2.26 µM (inactive) | 
N/C(=N\N=C\c1nc2ccccc2o1)c1cnccn1 | > 100 µM (inactive) | > 100 µM (inactive) | > 100 µM (inactive) | > 100 µM (inactive) | > 100 µM (inactive) | 49.9 µM (inactive) | > 100 µM (inactive) | 42.7 µM (inactive) | 43.2 µM (inactive) | > 100 µM (inactive) | > 100 µM (inactive) | > 100 µM (inactive) | 70.8 µM (inactive) | > 100 µM (inactive) | > 100 µM (inactive) | > 100 µM (inactive) | 51.2 µM (inactive) | > 100 µM (inactive) | 83.8 µM (inactive) | 
Cc1cccc(/N=N/c2c(C)nn(C(=O)CC(=O)Nc3ccc(Cl)cc3)c2C)c1 | > 100 µM (inactive) | > 100 µM (inactive) | > 100 µM (inactive) | 23.8 µM (inactive) | > 100 µM (inactive) | 36 µM (inactive) | > 100 µM (inactive) | 65.6 µM (inactive) | 37.1 µM (inactive) | 67.1 µM (inactive) | > 100 µM (inactive) | > 100 µM (inactive) | 60.5 µM (inactive) | > 100 µM (inactive) | > 100 µM (inactive) | 95.5 µM (inactive) | 20.7 µM (inactive) | > 100 µM (inactive) | > 100 µM (inactive) | 
C=CCOCn1ccc(=O)[nH]c1=O | > 100 µM (inactive) | > 100 µM (inactive) | > 100 µM (inactive) | > 100 µM (inactive) | > 100 µM (inactive) | > 100 µM (inactive) | > 100 µM (inactive) | > 100 µM (inactive) | > 100 µM (inactive) | > 100 µM (inactive) | > 100 µM (inactive) | > 100 µM (inactive) | > 100 µM (inactive) | > 100 µM (inactive) | > 100 µM (inactive) | > 100 µM (inactive) | > 100 µM (inactive) | > 100 µM (inactive) | > 100 µM (inactive) | 
COC(=O)C1C(=O)C=CN([C@H](C)c2ccccc2)[C@@H]1Cc1ccc(OC)c(OCc2ccccc2)c1I (some centres not stated) | 14.3 µM (inactive) | 22 µM (inactive) | 18.3 µM (inactive) | 17.5 µM (inactive) | 10 µM (inactive) | 17.3 µM (inactive) | 19.4 µM (inactive) | 34 µM (inactive) | 20.4 µM (inactive) | 11.7 µM (inactive) | 27.7 µM (inactive) | 18.3 µM (inactive) | 23.2 µM (inactive) | 14.9 µM (inactive) | 13.5 µM (inactive) | 14.5 µM (inactive) | 18.3 µM (inactive) | 18.2 µM (inactive) | 17 µM (inactive) | 
CCN(CC)C(=C(C(Cl)=C(Cl)Cl)[N+](=O)[O-])N(CC)CC | 93.5 µM (inactive) | 34.8 µM (inactive) | 83 µM (inactive) | 24.7 µM (inactive) | > 100 µM (inactive) | 29.6 µM (inactive) | > 100 µM (inactive) | > 100 µM (inactive) | > 100 µM (inactive) | 87.7 µM (inactive) | 85.9 µM (inactive) | > 100 µM (inactive) | 72.6 µM (inactive) | 42.3 µM (inactive) | > 100 µM (inactive) | 41 µM (inactive) | > 100 µM (inactive) | 54.6 µM (inactive) | 24.1 µM (inactive) | 
Nc1ccc2c(c1)C(=O)c1ccc(F)cc1-2 | > 100 µM (inactive) | > 100 µM (inactive) | > 100 µM (inactive) | > 100 µM (inactive) | > 100 µM (inactive) | > 100 µM (inactive) | > 100 µM (inactive) | > 100 µM (inactive) | > 100 µM (inactive) | 88.5 µM (inactive) | > 100 µM (inactive) | > 100 µM (inactive) | > 100 µM (inactive) | > 100 µM (inactive) | > 100 µM (inactive) | > 100 µM (inactive) | > 100 µM (inactive) | > 100 µM (inactive) | > 100 µM (inactive) | 
N#CCOc1cccc(C2(N3CC=CCC3)CCCCC2)c1 | > 100 µM (inactive) | > 100 µM (inactive) | > 100 µM (inactive) | > 100 µM (inactive) | > 100 µM (inactive) | 83.2 µM (inactive) | > 100 µM (inactive) | > 100 µM (inactive) | > 100 µM (inactive) | > 100 µM (inactive) | 94 µM (inactive) | 86.9 µM (inactive) | > 100 µM (inactive) | 77.6 µM (inactive) | > 100 µM (inactive) | 97.9 µM (inactive) | > 100 µM (inactive) | 72.3 µM (inactive) | > 100 µM (inactive) | 
O=C(c1ccccc1)c1ccc2c(c1)nc1n2C(c2c(Cl)cccc2Cl)SC1 (configuration not stated) | > 100 µM (inactive) | 70.6 µM (inactive) | 77.1 µM (inactive) | 84.1 µM (inactive) | 56.1 µM (inactive) | 39.4 µM (inactive) | > 100 µM (inactive) | > 100 µM (inactive) | > 100 µM (inactive) | 29 µM (inactive) | > 100 µM (inactive) | 63.7 µM (inactive) | 71.6 µM (inactive) | 52.4 µM (inactive) | 27.5 µM (inactive) | 44 µM (inactive) | > 100 µM (inactive) | 95.5 µM (inactive) | 47.4 µM (inactive) | 
CN(C)c1ccc(/C=c2/sc3nc(=O)c(-c4ccccc4NC(=O)C(F)(F)F)nn3c2=O)cc1 | > 100 µM (inactive) | > 100 µM (inactive) |  |  | > 100 µM (inactive) |  | > 100 µM (inactive) | > 100 µM (inactive) | > 100 µM (inactive) |  | > 100 µM (inactive) | > 100 µM (inactive) | > 100 µM (inactive) |  | > 100 µM (inactive) | > 100 µM (inactive) |  |  | 67.6 µM (inactive) | > 100 µM (inactive)
O=C1c2ccccc2C(=O)c2c(NCC3CO3)cccc21 (configuration not stated) | 7.66 µM (inactive) | 4.75 µM (inactive) | 19 µM (inactive) | 38.4 µM (inactive) | 18.2 µM (inactive) | 5.27 µM (inactive) | > 45.3 µM (inactive) | > 95.7 µM (inactive) | > 46.1 µM (inactive) | 7.01 µM (inactive) | 5.57 µM (inactive) | 7.19 µM (inactive) | 8.67 µM (inactive) | 33.2 µM (inactive) | 22.6 µM (inactive) | 1.38 µM (inactive) | 15.2 µM (inactive) | > 56.2 µM (inactive) | 9.44 µM (inactive) | 
CC1(C)[C@@H]2CC[C@@]1(C)C1(S[S+]1[O-])C21Cc2ccccc2C1 (some centres not stated) | 18.1 µM (inactive) | 20.4 µM (inactive) | 32.1 µM (inactive) | 44.2 µM (inactive) | 17.9 µM (inactive) | 18.1 µM (inactive) | 24.5 µM (inactive) | > 100 µM (inactive) | 81.1 µM (inactive) | 14.7 µM (inactive) | 14.7 µM (inactive) | 17.3 µM (inactive) | 20.9 µM (inactive) | 21 µM (inactive) | > 10 µM (inactive) | 15.1 µM (inactive) | 17.3 µM (inactive) | 20.9 µM (inactive) | 31.8 µM (inactive) | 
Cc1c2cc[n+](C)cc2c(C)c2c1[nH]c1ccc(OCC(F)(F)F)cc12 | 0.277 µM (active) | 8.34 µM (inactive) |  |  | 2.28 µM (inactive) |  | 1.25 µM (inactive) | 3.89 µM (inactive) | 0.789 µM (active) | 3.95 µM (inactive) | 3.35 µM (inactive) | 0.798 µM (active) |  |  | 1.55 µM (inactive) |  |  |  | 1.23 µM (inactive) | 0.501 µM (active)
